From patent US20250171457A1, “NITROGEN-CONTAINING HETEROCYCLIC COMPOUND HAVING NRF2 ACTIVATION EFFECT” (CHUGAI SEIYAKU KABUSHIKI KAISHA, priority 2022, published 2025) come the findings set out here.

By EC50 is commonly meant the concentration that produces a half-maximal response. A high value points to a less potent agent.

This assay concerns Nrf2 transcriptional activity (pARE-Luc reporter) in HepG2 cells. Kind of assay: In vitro Nrf2 transcriptional activity measurement by ARE-dependent reporter assay in HepG2 cell. The assay is classed as cell-based, human. The conditions noted are these: Homo sapiens; HepG2 cells transfected with pARE-Luc, 4 hours at 37° C.; luciferase activity of Example 1-54 or Example 17-23 at 3.75 μM defined as 100%. The procedure, abridged:
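HepG2 cells transfected with pGL4.37 (pARE-Luc), replated onto compound and incubated 4 h at 37° C; luciferase read by Bright-Glo luminescence. Response normalized to 100% set by a reference compound at 3.75 μM; EC50 from dose-response curve.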
(In general: A reporter such as luciferase makes a cellular process visible.)
As for `O=C(O)c1cc(F)c(-c2cccc3c2OCN(C(=O)c2c(Cl)cc(N4CC5(CC(OC6COC6)C5)C4)cc2Cl)C3)cc1N1C2CCC1COC2` [Compound 6-10, 4-[3-[2,6-Dichloro-4-[6-(oxetan-3-yloxy)-2-azaspiro[3.3]heptan-2-yl]benzoyl]-2,4-dihydro-1,3-benzoxazin-8-yl]-5-fluoro-2-(3-oxa-8-azabicyclo[3.2.1]octan-8-yl)benzoic acid], a half-maximal response (EC50) required 3.7 nM.

For the compound `O=C(O)c1cc(F)c(-c2cccc3c2OCN(C(=O)c2c(Cl)cc(N4CC5(CN(CC6(F)COC6)C5)C4)cc2Cl)C3)cc1N1C2CCC1COC2` [Compound 7-1, 4-[3-[2,6-Dichloro-4-[6-[(3-fluorooxetan-3-yl)methyl]-2,6-diazaspiro[3.3]heptan-2-yl]benzoyl]-2,4-dihydro-1,3-benzoxazin-8-yl]-5-fluoro-2-(3-oxa-8-azabicyclo[3.2.1]octan-8-yl)benzoic acid], the EC50 came to 4.8 nM.

In turn, `COCCN1CC2(C1)CN(c1cc(Cl)c(C(=O)N3COc4c(cccc4-c4cc(N5C6CCC5COC6)c(C(=O)O)cc4F)C3)c(Cl)c1)C2` [Compound 7-3, 4-[3-[2,6-Dichloro-4-[6-(2-methoxyethyl)-2,6-diazaspiro[3.3]heptan-2-yl]benzoyl]-2,4-dihydro-1,3-benzoxazin-8-yl]-5-fluoro-2-(3-oxa-8-azabicyclo[3.2.1]octan-8-yl)benzoic acid] had an EC50 of 18 nM.

On to `O=C(O)c1cc(F)c(-c2cccc3c2OCN(C(=O)c2c(Cl)cc(N4CC5(CCN5CC(F)F)C4)cc2Cl)C3)cc1N1C2CCC1COC2` [Compound 7-4, 4-[3-[2,6-Dichloro-4-[1-(2,2-difluoroethyl)-1,6-diazaspiro[3.3]heptan-6-yl]benzoyl]-2,4-dihydro-1,3-benzoxazin-8-yl]-5-fluoro-2-(3-oxa-8-azabicyclo[3.2.1]octan-8-yl)benzoic acid], for which the response was half-maximal at 4.3 nM (EC50).

`O=C(O)c1cc(F)c(-c2cccc3c2OCN(C(=O)c2c(Cl)cc(N4CC5(CN(CC(F)(F)F)C5)C4)cc2Cl)C3)cc1N1C2CCC1COC2` [Compound 7-5, 4-[3-[2,6-Dichloro-4-[6-(2,2,2-trifluoroethyl)-2,6-diazaspiro[3.3]heptan-2-yl]benzoyl]-2,4-dihydro-1,3-benzoxazin-8-yl]-5-fluoro-2-(3-oxa-8-azabicyclo[3.2.1]octan-8-yl)benzoic acid] registered an EC50 of 3.7 nM.

Compound `COCCN1CCC12CN(c1cc(Cl)c(C(=O)N3COc4c(cccc4-c4cc(N5C6CCC5COC6)c(C(=O)O)cc4F)C3)c(Cl)c1)C2` [Compound 7-6, 4-[3-[2,6-Dichloro-4-[1-(2-methoxyethyl)-1,6-diazaspiro[3.3]heptan-6-yl]benzoyl]-2,4-dihydro-1,3-benzoxazin-8-yl]-5-fluoro-2-(3-oxa-8-azabicyclo[3.2.1]octan-8-yl)benzoic acid] came in with a concentration giving a half-maximal response (EC50) of 5.4 nM.

As for `CC(C)(C#N)CN1CC2(C1)CN(c1cc(Cl)c(C(=O)N3COc4c(cccc4-c4cc(N5C6CCC5COC6)c(C(=O)O)cc4F)C3)c(Cl)c1)C2` [Compound 7-7, 4-[3-[2,6-Dichloro-4-[6-(2-cyano-2-methylpropyl)-2,6-diazaspiro[3.3]heptan-2-yl]benzoyl]-2,4-dihydro-1,3-benzoxazin-8-yl]-5-fluoro-2-(3-oxa-8-azabicyclo[3.2.1]octan-8-yl)benzoic acid], the EC50 was 3.4 nM.

Regarding `COCCN1CCN(c2cc(Cl)c(C(=O)N3COc4c(cccc4-c4cc(N5C6CCC5COC6)c(C(=O)O)cc4F)C3)c(Cl)c2)[C@@H](C)C1` [Compound 7-8, 4-[3-[2,6-Dichloro-4-[(2S)-4-(2-methoxyethyl)-2-methylpiperazin-1-yl]benzoyl]-2,4-dihydro-1,3-benzoxazin-8-yl]-5-fluoro-2-(3-oxa-8-azabicyclo[3.2.1]octan-8-yl)benzoic acid], the response was half-maximal at 3.2 nM (EC50).
